Source: patent publication US10966978B2, “Dose and regimen for HDM2-p53 interaction inhibitors” (Novartis AG, priority 2016, dated 2021)
Like-named read-outs stand apart in the source and are kept apart here.

Tested on: patients with advanced TP53 wild-type (WT) leukemias
Source text: Patients with Ph+ ALL who show early markers of relapse in MRD surveillance can be considered for inclusion as long as other therapies such as TKIs are exhausted or cannot be given. • Tumor of the patient is TP53 wt characterized by, at a minimum, no mutations in exons 5, 6, 7 and 8, and the p53 status was obtained from a bone-marrow sample, collected no longer than 3 months before signing the main ICF. Safety and Tolerability Profile of Regimen 1B in Hematological Tumors

## COc1ncc(-c2nc3c(n2C(C)C)[C@H](c2ccc(Cl)cc2)N(c2cc(Cl)cn(C)c2=O)C3=O)c(OC)n1 [HDM201, (S)-5-(5-Chloro-1-methyl-2-oxo-1,2-dihydro-pyridin-3-yl)-6-(4-chloro-phenyl)-2-(2,4-dimethoxy-pyrimidin-5-yl)-1-isopropyl-5,6-dihydro-1H-pyrrolo[3,4-d]imidazol-4-one]
Regimen 1B N = 6, All Grades
  AE: Stomatitis: 0 n (%)
  AE: Subarachnoid Haemorrhage: 0 n (%)
  AE: Thrombocytopenia/Platelet Count Decreased: 3 (50.0) n (%)
  AE: Total: 5 (83.3) n (%)
  AE: Tumour Lysis Syndrome: 0 n (%)
  AE: Vomiting: 0 n (%)
  AE: Weight Decreased: 0 n (%)
  AE: White Blood Cell Count Decreased: 0 n (%)
Regimen 1B N = 6, Grade 3/4
  AE: Abdominal Discomfort: 0 n (%)
  AE: Abdominal Pain: 0 n (%)
  AE: Abdominal Pain Upper: 0 n (%)
  AE: Acute Kidney Injury: 1 (16.7) n (%)
  AE: Amylase Increased: 0 n (%)
  AE: Anaemia: 2 (33.3) n (%)
  AE: Arthralgia: 0 n (%)
  AE: Asthenia: 0 n (%)
  AE: Atrial Fibrillation: 0 n (%)
  AE: Atypical Pneumonia: 0 n (%)
  AE: Balanitis Candida: 0 n (%)
  AE: Blood Alkaline Phosphatase Increased: 0 n (%)
  AE: Blood Bilirubin Increased: 0 n (%)
  AE: Blood Creatinine Increased: 0 n (%)
  AE: Blood Phosphorus Increased: 0 n (%)
  AE: Blood Uric Acid Increased: 0 n (%)
  AE: Bone Marrow Failure: 0 n (%)
  AE: C-Reactive Protein Increased: 0 n (%)
  AE: Cardiac Failure: 0 n (%)
  AE: Cellulitis: 1 (16.7) n (%)
  AE: Chronic Graft Versus Host Disease: 0 n (%)
  AE: Conjunctival Haemorrhage: 0 n (%)
  AE: Constipation: 0 n (%)
  AE: Cough: 0 n (%)
  AE: Cystitis Viral: 0 n (%)
  AE: Cytomegalovirus Infection: 0 n (%)
  AE: Decreased Appetite: 0 n (%)
  AE: Diarrhoea: 0 n (%)
  AE: Dyspepsia: 0 n (%)
  AE: Dyspnoea: 0 n (%)
  AE: Epistaxis: 0 n (%)
  AE: Fatigue: 0 n (%)
  AE: Febrile Neutropenia: 2 (33.3) n (%)
  AE: Gamma-Glutamyltransferase Increased: 0 n (%)
  AE: General Physical Health Deterioration: 0 n (%)
  AE: Gingival Bleeding: 0 n (%)
  AE: Graft Versus Host Disease: 0 n (%)
  AE: Haemoglobin Decreased: 0 n (%)
  AE: Headache: 0 n (%)
  AE: Hyperbilirubinaemia: 0 n (%)
  AE: Hyperglycaemia: 0 n (%)
  AE: Hyperkalaemia: 1 (16.7) n (%)
  AE: Hyperphosphataemia: 0 n (%)
  AE: Hyperuricaemia: 0 n (%)
  AE: Hypoalbuminaemia: 0 n (%)
  AE: Hypocalcaemia: 0 n (%)
  AE: Hypokalaemia: 0 n (%)
  AE: Hypomagnesaemia: 0 n (%)
  AE: Hyponatraemia: 0 n (%)
  AE: Hypophosphataemia: 0 n (%)
  AE: Hypotension: 0 n (%)
  AE: Infection: 0 n (%)
  AE: Infective Glossitis: 0 n (%)
  AE: Iron Overload: 0 n (%)
  AE: Leukopenia: 0 n (%)
  AE: Lip Oedema: 0 n (%)
  AE: Lipase Increased: 0 n (%)
  AE: Macular Oedema: 1 (16.7) n (%)
  AE: Malaise: 0 n (%)
  AE: Mouth Haemorrhage: 0 n (%)
  AE: Nausea: 0 n (%)
  AE: Neutropenia/Neutrophil Count Decreased: 1 (16.7) n (%)
  AE: Oedema: 0 n (%)
  AE: Oedema Peripheral: 0 n (%)
  AE: Oral Disorder: 0 n (%)
  AE: Pain In Extremity: 0 n (%)
  AE: Pancytopenia: 1 (16.7) n (%)
  AE: Pneumonia: 0 n (%)
  AE: Pollakiuria: 0 n (%)
  AE: Pyrexia: 0 n (%)
  AE: Rash: 0 n (%)
  AE: Rash Erythematous: 0 n (%)
  AE: Rash Papular: 0 n (%)
  AE: Rectal Haemorrhage: 0 n (%)
  AE: Renal Failure: 0 n (%)
  AE: Skin Exfoliation: 0 n (%)
  AE: Stomatitis: 0 n (%)
  AE: Subarachnoid Haemorrhage: 0 n (%)
  AE: Thrombocytopenia/Platelet Count Decreased: 3 (50.0) n (%)
  AE: Total: 5 (83.3) n (%)
  AE: Tumour Lysis Syndrome: 0 n (%)
  AE: Vomiting: 0 n (%)
  AE: Weight Decreased: 0 n (%)
  AE: White Blood Cell Count Decreased: 0 n (%)
Regimen 2A N = 7, All Grades
  AE: Abdominal Discomfort: 0 n (%)
  AE: Abdominal Pain: 0 n (%)
  AE: Abdominal Pain Upper: 0 n (%)
  AE: Acute Kidney Injury: 1 (14.3) n (%)
  AE: Amylase Increased: 0 n (%)
  AE: Anaemia: 3 (42.9) n (%)
  AE: Arthralgia: 0 n (%)
  AE: Asthenia: 0 n (%)
  AE: Atrial Fibrillation: 0 n (%)
  AE: Atypical Pneumonia: 0 n (%)
  AE: Balanitis Candida: 0 n (%)
  AE: Blood Alkaline Phosphatase Increased: 0 n (%)
  AE: Blood Bilirubin Increased: 0 n (%)
  AE: Blood Creatinine Increased: 1 (14.3) n (%)
  AE: Blood Phosphorus Increased: 0 n (%)
  AE: Blood Uric Acid Increased: 0 n (%)
  AE: Bone Marrow Failure: 1 (14.3) n (%)
  AE: C-Reactive Protein Increased: 1 (14.3) n (%)
  AE: Cardiac Failure: 0 n (%)
  AE: Cellulitis: 0 n (%)
  AE: Chronic Graft Versus Host Disease: 0 n (%)
  AE: Conjunctival Haemorrhage: 0 n (%)
  AE: Cough: 0 n (%)
  AE: Cystitis Viral: 0 n (%)
  AE: Cytomegalovirus Infection: 1 (14.3) n (%)
  AE: Decreased Appetite: 1 (14.3) n (%)
  AE: Diarrhoea: 0 n (%)
  AE: Dyspepsia: 1 (14.3) n (%)
  AE: Dyspnoea: 0 n (%)
  AE: Epistaxis: 0 n (%)
  AE: Fatigue: 0 n (%)
  AE: Febrile Neutropenia: 2 (28.6) n (%)
  AE: Gamma-Glutamyltransferase Increased: 0 n (%)
  AE: General Physical Health Deterioration: 0 n (%)
  AE: Gingival Bleeding: 0 n (%)
  AE: Graft Versus Host Disease: 0 n (%)
  AE: Haemoglobin Decreased: 0 n (%)
  AE: Headache: 0 n (%)
  AE: Hyperbilirubinaemia: 1 (14.3) n (%)
  AE: Hyperglycaemia: 0 n (%)
  AE: Hyperkalaemia: 0 n (%)
  AE: Hyperphosphataemia: 0 n (%)
  AE: Hyperuricaemia: 1 (14.3) n (%)
  AE: Hypoalbuminaemia: 0 n (%)
  AE: Hypocalcaemia: 0 n (%)
  AE: Hypokalaemia: 0 n (%)
  AE: Hypomagnesaemia: 0 n (%)
  AE: Hyponatraemia: 0 n (%)
  AE: Hypophosphataemia: 0 n (%)
  AE: Hypotension: 0 n (%)
  AE: Infection: 0 n (%)
  AE: Infective Glossitis: 0 n (%)
  AE: Iron Overload: 0 n (%)
  AE: Leukopenia: 0 n (%)
  AE: Lip Oedema: 0 n (%)
  AE: Lipase Increased: 0 n (%)
  AE: Macular Oedema: 0 n (%)
  AE: Malaise: 1 (14.3) n (%)
  AE: Mouth Haemorrhage: 0 n (%)
  AE: Nausea: 3 (42.9) n (%)
  AE: Neutropenia/Neutrophil Count Decreased: 1 (14.3) n (%)
  AE: Oedema: 0 n (%)
  AE: Oedema Peripheral: 0 n (%)
  AE: Oral Disorder: 0 n (%)
  AE: Pain In Extremity: 0 n (%)
  AE: Pancytopenia: 0 n (%)
  AE: Pneumonia: 0 n (%)
  AE: Pollakiuria: 0 n (%)
  AE: Pyrexia: 1 (14.3) n (%)
  AE: Rash: 0 n (%)
  AE: Rash Erythematous: 0 n (%)
  AE: Rash Papular: 0 n (%)
  AE: Rectal Haemorrhage: 0 n (%)
  AE: Renal Failure: 0 n (%)
  AE: Skin Exfoliation: 0 n (%)
  AE: Stomatitis: 0 n (%)
  AE: Subarachnoid Haemorrhage: 0 n (%)
  AE: Thrombocytopenia/Platelet Count Decreased: 2 (28.6) n (%)
  AE: Total: 5 (71.4) n (%)
  AE: Tumour Lysis Syndrome: 1 (14.3) n (%)
  AE: Vomiting: 1 (14.3) n (%)
  AE: Weight Decreased: 0 n (%)
  AE: White Blood Cell Count Decreased: 1 (14.3) n (%)
Regimen 2A N = 7, Grade 3/4
  AE: Abdominal Discomfort: 0 n (%)
  AE: Abdominal Pain: 0 n (%)
  AE: Abdominal Pain Upper: 0 n (%)
  AE: Acute Kidney Injury: 0 n (%)
  AE: Amylase Increased: 0 n (%)
  AE: Anaemia: 2 (28.6) n (%)
  AE: Arthralgia: 0 n (%)
  AE: Asthenia: 0 n (%)
  AE: Atrial Fibrillation: 0 n (%)
  AE: Atypical Pneumonia: 0 n (%)
  AE: Balanitis Candida: 0 n (%)
  AE: Blood Alkaline Phosphatase Increased: 0 n (%)
  AE: Blood Bilirubin Increased: 0 n (%)
  AE: Blood Creatinine Increased: 0 n (%)
  AE: Blood Phosphorus Increased: 0 n (%)
  AE: Blood Uric Acid Increased: 0 n (%)
  AE: Bone Marrow Failure: 1 (14.3) n (%)
  AE: C-Reactive Protein Increased: 1 (14.3) n (%)
  AE: Cardiac Failure: 0 n (%)
  AE: Cellulitis: 0 n (%)
  AE: Chronic Graft Versus Host Disease: 0 n (%)
  AE: Conjunctival Haemorrhage: 0 n (%)
  AE: Cough: 0 n (%)
  AE: Cystitis Viral: 0 n (%)
  AE: Cytomegalovirus Infection: 0 n (%)
  AE: Decreased Appetite: 0 n (%)
  AE: Diarrhoea: 0 n (%)
  AE: Dyspepsia: 0 n (%)
  AE: Dyspnoea: 0 n (%)
  AE: Epistaxis: 0 n (%)
  AE: Fatigue: 0 n (%)
  AE: Febrile Neutropenia: 2 (28.6) n (%)
  AE: Gamma-Glutamyltransferase Increased: 0 n (%)
  AE: General Physical Health Deterioration: 0 n (%)
  AE: Gingival Bleeding: 0 n (%)
  AE: Graft Versus Host Disease: 0 n (%)
